Source: ChEMBL document CHEMBL1201862, “PubChem BioAssay data set” (2004)
Active and inactive are the calls of the source.

Legend:
[1] = Concentration-dependent survival of SW480 colon cancer line, luminescence detection with CellTiter-Glo, half-maximal inhibitory concentration (AID 1117338); type: functional
[2] = RKO cell viability reduction, dose response, CellTiter-Glo luminescence (AID 1117322); type: functional
[3] = cytotoxicity toward HCT116 cells – cell-based, CellTiter-Glo luminescence, IC50, dose response (AID 1117332); type: functional; conditions: HCT-116
[4] = SNU-C1 cell viability reduction, dose response, CellTiter-Glo luminescence (AID 1117323); type: functional, cell-based
[5] = cytotoxicity toward Colo320 cells – cell-based, CellTiter-Glo luminescence, IC50, dose response (AID 1117334); type: functional; conditions: COLO 320
[6] = cytotoxicity toward HT-29 cells – cell-based, CellTiter-Glo luminescence, IC50, dose response (AID 1117330); type: functional
[7] = CellTiter-Glo luminescent dose response of DLD-1 viability loss (AID 1117352); type: functional
[8] = HCT116 cell viability decrease, GSK3B pretreatment – CellTiter-Glo, IC50, dose response (AID 1117339); type: functional; conditions: HCT-116
[9] = inhibitors of PGC1a acetylation in cells, dose response, cell-based, cherry-picked samples (AID 720514); type: functional;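 note: potency may reflect raised or lowered acetylation signal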
[10] = Luminescence Cell-Based Dose Response to Identify Activators of 5'UTR Stem-Loop Driven Prion Protein mRNA Translation in H4-C Neuroglioblastoma Cells. [Related pubchem assays: 1829 (Project Summary), 1814 (Primary HTS)]; type: functional
[11] = Luminescence Cell-Based Dose Response HTS to Identify Activators of Luciferase Translation or Activity in H4 […] Cells. [Related pubchem assays: 1829 (Project Summary), 1814 (Primary HTS)]; type: functional
[12] = Luminescence Cell-Based Dose Response to Identify Activators of Luciferase Translation or Activity in H4-C Neuroglioblastoma Cells. [Related pubchem assays: 1829 (Project Summary), 1814 (Primary HTS)]; type: functional
[13] = Luminescence Cell-Based Dose Confirmation to Identify Activators of 5'UTR Stem-Loop Driven Alpha-Synuclein mRNA Translation in H4 Neuroglioblastoma Cells. [Related pubchem assays: 1829 (Project Summary), 1814 (Primary HTS)]; type: functional
[14] = P. falciparum Dd2 growth inhibitors, dose response, SYBR Green, dry powder samples, set 9 (AID 1159568); type: functional, cell-based
[15] = target: G-protein coupled receptor 183 (Homo sapiens, UniProt P32249); assay: SAR confirmation of small molecule antagonists of the EBI2 receptor via a luminescent beta-arrestin assa.; type: functional
Chain of G-protein coupled receptor 183 (P32249 whole entry): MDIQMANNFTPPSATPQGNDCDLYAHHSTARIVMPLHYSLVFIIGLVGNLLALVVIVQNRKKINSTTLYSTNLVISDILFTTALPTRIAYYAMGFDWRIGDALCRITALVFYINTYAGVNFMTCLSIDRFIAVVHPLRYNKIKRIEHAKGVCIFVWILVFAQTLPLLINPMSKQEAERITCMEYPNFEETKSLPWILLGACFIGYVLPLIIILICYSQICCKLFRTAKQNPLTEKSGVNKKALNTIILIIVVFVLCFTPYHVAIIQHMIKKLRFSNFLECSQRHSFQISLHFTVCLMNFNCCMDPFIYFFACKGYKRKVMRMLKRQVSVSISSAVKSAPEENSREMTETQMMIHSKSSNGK

[16] = P. falciparum 3D7-ScDHODH growth inhibitors, dose response, SYBR Green, dry powder samples (AID 1159570); type: functional, cell-based;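 note: parasite growth measured after 72 hours of compound exposure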
[17] = HepG2 cell cytotoxicity, dose response, cytotoxicity control, plate reader, dry powder samples (AID 1159569); type: functional, cell-based;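 note: inhibitor potency with signal falling toward the positive control level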
[18] = P. falciparum Dd2 growth inhibitors, dose response, SYBR Green, dry powder samples (AID 1159566); type: functional, cell-based;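 note: potency for growth inhibition with lower SYBR green DNA signal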
[19] = P. falciparum ATP4 D1247Y mutant growth inhibitors, dose response, NITD609-resistant line, SYBR Green, dry powder (AID 1159571); type: functional, cell-based;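 note: parasites synchronized at ring stage by sorbitol before testing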

CCOC(=O)[C@H](CCc1ccccc1)N[C@@H](C)C(=O)N1C(=O)N(C)C[C@H]1C(=O)O
IC50 [1]: > 20 µM (inactive) | IC50 [2]: > 20 µM (inactive) | IC50 [3]: > 20 µM (inactive) | IC50 [4]: > 20 µM (inactive) | IC50 [5]: > 20 µM (inactive) | IC50 [6]: > 20 µM (inactive) | IC50 [7]: > 20 µM (inactive) | IC50 [8]: > 20 µM (inactive)

N#C[C@H]1[C@H](c2ccc(C#CC3CCCC3)cc2)[C@H](CO)N1C(=O)Cc1ccccn1
AC50 [9]: 20.4 µM (active)

COc1ccc(C(=O)/N=c2\sc3c(C)ccc(OC)c3n2C)cc1OC
EC50 [10]: 0.484 µM (active) | EC50 [11]: < 0.1 µM (inconclusive) | EC50 [12]: 0.405 µM (active) | EC50 [13]: 0.256 µM (active)

COc1ccc(S(=O)(=O)N(C)C[C@H]2Oc3ccc(NC(=O)Cc4cn(C)c5ccccc45)cc3C(=O)N([C@H](C)CO)C[C@@H]2C)cc1
AC50 [14]: 0.39 µM (active)

O=C(/C=C/c1ccc(Br)cc1)N1CCN(C(=O)c2ccccc2)CC1
IC50 [15]: 0.00062 µM (active)

Cc1ccc(CN2CCN(C(=O)/C=C/c3ccc(Br)cc3)CC2)cc1
IC50 [15]: 0.00177 µM (active)

COc1cccc(CN2[C@H](CO)[C@@H](c3ccccc3)C23CN(Cc2ccccc2OC)C3)c1
AC50 [16]: 0.999 µM (active) | AC50 [17]: 23.9 µM (active) | AC50 [14]: 1.31 µM (active) | AC50 [18]: 0.47 µM (active) | AC50 [19]: 0.875 µM (active)

CSc1ccc(/C=C2/C(C)=C(CC(=O)O)c3cc(F)ccc32)cc1 [SULINDAC SULFIDE]
IC50 [1]: 20 µM (inactive) | IC50 [2]: > 20 µM (inactive) | IC50 [3]: > 20 µM (inactive) | IC50 [4]: 12 µM (inactive) | IC50 [5]: > 20 µM (inactive) | IC50 [6]: > 20 µM (inactive) | IC50 [7]: > 20 µM (inactive) | IC50 [8]: > 20 µM (inactive)
